# Source: PubChem BioAssay AID330 (DTP/NCI, 2004)
# Where “and” joins values, the source holds several entries; their conditions need not be identical. Identical values can stand only once. Toxic doses and inconclusive results are not listed.
# Tested on: P388 leukemia ip, CD2F1 mice, survival T/C
# Assay: NCI In Vivo Anticancer Drug Screen. Data for tumor model P388 Leukemia (intraperitoneal) in CD2F1 (CDF1) mice
# Conditions: endpoint: median survival time, higher = longer survival
# Procedure, shortened: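 Mice carrying the transplanted tumor received test compound or vehicle. Survival was recorded in each group, and the value is the treated-group measurement divided by that of the vehicle-treated control group.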
# [1] = dose: 60.0 mg/kg/injection, schedule: Q01DX005 (ip), vehicle: saline with Tween-80
# [2] = dose: 120.0 mg/kg/injection, schedule: Q01DX005 (ip), vehicle: saline with Tween-80
# [3] = dose: 240.0 mg/kg/injection, schedule: Q01DX005 (ip), vehicle: saline with Tween-80
# [4] = dose: 50.0 mg/kg/injection, schedule: Q01DX005 (ip), vehicle: saline with Tween-80
# [5] = dose: 100.0 mg/kg/injection, schedule: Q01DX005 (ip), vehicle: saline with Tween-80
# [6] = dose: 200.0 mg/kg/injection, schedule: Q01DX005 (ip), vehicle: saline with Tween-80
# [7] = dose: 50.0 mg/kg/injection, schedule: Q01DX005 (ip), vehicle: Klucel (hydroxypropylcellulose) (HPC)
# [8] = dose: 100.0 mg/kg/injection, schedule: Q01DX005 (ip), vehicle: Klucel (hydroxypropylcellulose) (HPC)
# [9] = dose: 200.0 mg/kg/injection, schedule: Q01DX005 (ip), vehicle: Klucel (hydroxypropylcellulose) (HPC)
# [10] = dose: 25.0 mg/kg/injection, schedule: Q01DX009 (ip), vehicle: saline with Tween-80
# [11] = dose: 50.0 mg/kg/injection, schedule: Q01DX009 (ip), vehicle: saline with Tween-80
# [12] = dose: 100.0 mg/kg/injection, schedule: Q01DX009 (ip), vehicle: saline with Tween-80
# [13] = dose: 50.0 mg/kg/injection, schedule: Q01DX005 (ip), vehicle: saline
# [14] = dose: 100.0 mg/kg/injection, schedule: Q01DX005 (ip), vehicle: saline
# [15] = dose: 200.0 mg/kg/injection, schedule: Q01DX005 (ip), vehicle: saline
# [16] = dose: 200.0 mg/kg/injection, schedule: Q01DX009 (ip), vehicle: saline with Tween-80
# [17] = dose: 400.0 mg/kg/injection, schedule: Q01DX009 (ip), vehicle: saline with Tween-80
structure (smiles),measurement,setting,value
O=C(CC(=O)C(F)(F)F)c1cccs1.O=C(CC(=O)C(F)(F)F)c1cccs1.O=C(CC(=O)C(F)(F)F)c1cccs1.[Eu],T/C,"dose: 50.0 mg/kg/injection, schedule: Q01DX009 (ip), vehicle: saline",113 % of control
same,T/C,"dose: 100.0 mg/kg/injection, schedule: Q01DX009 (ip), vehicle: saline",106 % of control
same,T/C,"dose: 200.0 mg/kg/injection, schedule: Q01DX009 (ip), vehicle: saline",102 % of control
O=S1(=O)CC2(N3CCOCC3)C3CCC(C3)C21 (configuration not stated),T/C,"dose: 50.0 mg/kg/injection, schedule: Q04DX003 (ip), vehicle: saline with Tween-80",99 % of control and 101 % of control
same,T/C,"dose: 100.0 mg/kg/injection, schedule: Q04DX003 (ip), vehicle: saline with Tween-80",100 % of control and 104 % of control
same,T/C,"dose: 200.0 mg/kg/injection, schedule: Q04DX003 (ip), vehicle: saline with Tween-80",101 % of control and 104 % of control
Cc1cccc(C)c1NC(=O)CCC(=O)CC(=O)c1ccncc1,T/C,[1],103 % of control
same,T/C,[2],105 % of control
same,T/C,[3],101 % of control
OCC1OC(n2ncc3nccnc32)C(O)C1O (configuration not stated),T/C,"dose: 32.0 mg/kg/injection, schedule: Q01DX002 (ip), vehicle: saline with Tween-80",98 % of control and 114 % of control
same,T/C,"dose: 64.0 mg/kg/injection, schedule: Q01DX002 (ip), vehicle: saline with Tween-80",98 % of control and 109 % of control
same,T/C,"dose: 128.0 mg/kg/injection, schedule: Q01DX002 (ip), vehicle: saline with Tween-80",112 % of control and 114 % of control
COC(=O)/C=C/CS(C)(=O)=O,T/C,[4],105 % of control
same,T/C,[5],101 % of control
same,T/C,[6],99 % of control
CC1C(O)C(O)CC2COCC21 (configuration not stated),T/C,"dose: 37.5 mg/kg/injection, schedule: Q01DX001 (ip), vehicle: saline",100 % of control
same,T/C,"dose: 75.0 mg/kg/injection, schedule: Q01DX001 (ip), vehicle: saline",100 % of control
same,T/C,"dose: 150.0 mg/kg/injection, schedule: Q01DX001 (ip), vehicle: saline",104 % of control
O=C(O)CCC(=O)CCC(=O)c1ccc(O)c2ncccc12,T/C,[7],92 % of control
same,T/C,[8],105 % of control
same,T/C,[9],111 % of control
C[Si](C)(C)c1cnc(N)[nH]c1=O,T/C,[10],115 % of control
same,T/C,[11],120 % of control
same,T/C,[12],120 % of control
CC1Nc2nc(N)[nH]c(=O)c2NC1C (configuration not stated),T/C,"dose: 25.0 mg/kg/injection, schedule: Q01DX005 (ip), vehicle: saline",97 % of control
same,T/C,[13],100 % of control and 97 % of control
same,T/C,[14],101 % of control and 97 % of control
same,T/C,[15],101 % of control and 95 % of control
c1cc(C2=NCCN2)ccc1Nc1ccc(-c2cc3ccc(C4=NCCN4)cc3[nH]2)cc1,T/C,"dose: 3.75 mg/kg/injection, schedule: Q01DX005 (ip), vehicle: Klucel (hydroxypropylcellulose) (HPC)",150 % of control and 165 % of control
same,T/C,"dose: 7.5 mg/kg/injection, schedule: Q01DX005 (ip), vehicle: Klucel (hydroxypropylcellulose) (HPC)",154 % of control and 177 % of control
CC(CO)(CO)N1C(=O)c2cccc3cc([N+](=O)[O-])cc(c23)C1=O,T/C,[4],114 % of control
same,T/C,[5],105 % of control
same,T/C,[6],107 % of control
COC1=CCC=C(C(C)(C)C)C1,T/C,[1],98 % of control
same,T/C,[2],94 % of control
same,T/C,[3],103 % of control
COC(=O)[C@@H]1N2C(=O)C=NO[C@H]2SC1(C)C,T/C,"dose: 60.0 mg/kg/injection, schedule: Q01DX005 (ip), vehicle: saline",95 % of control
same,T/C,"dose: 120.0 mg/kg/injection, schedule: Q01DX005 (ip), vehicle: saline",98 % of control
same,T/C,"dose: 240.0 mg/kg/injection, schedule: Q01DX005 (ip), vehicle: saline",104 % of control
NC(Cc1ccc(O)cc1)C(=O)N/N=C/c1ccccc1Cl (configuration not stated),T/C,[7],100 % of control
same,T/C,[8],106 % of control
CC(=O)NC1=C(Cl)C(=O)c2ccccc2C1=O,T/C,"dose: 0.78 mg/kg/injection, schedule: Q01DX009 (ip), vehicle: Klucel (hydroxypropylcellulose) (HPC)",98 % of control
same,T/C,"dose: 1.56 mg/kg/injection, schedule: Q01DX009 (ip), vehicle: Klucel (hydroxypropylcellulose) (HPC)",100 % of control
same,T/C,"dose: 3.13 mg/kg/injection, schedule: Q01DX009 (ip), vehicle: Klucel (hydroxypropylcellulose) (HPC)",107 % of control
same,T/C,"dose: 6.25 mg/kg/injection, schedule: Q01DX009 (ip), vehicle: Klucel (hydroxypropylcellulose) (HPC)",104 % of control and 88 % of control
O=[N+]([O-])c1ccc(SC2=NCCCN2C2CCCCC2)c(Cl)c1,T/C,[7],97 % of control
same,T/C,[8],100 % of control
same,T/C,[9],103 % of control
N#C/C(=C\c1ccccc1)c1ccc(Cl)cc1,T/C,[11],105 % of control and 97 % of control
same,T/C,[12],106 % of control and 91 % of control
same,T/C,[16],113 % of control and 96 % of control
same,T/C,[17],103 % of control and 97 % of control
CCN(CC)[P+](C1=C(Cl)C(=O)C(C#N)=C(C#N)C1=O)(N(CC)CC)N(CC)CC,T/C,"dose: 3.1 mg/kg/injection, schedule: Q01DX009 (ip), vehicle: saline with Tween-80",108 % of control
same,T/C,"dose: 6.25 mg/kg/injection, schedule: Q01DX009 (ip), vehicle: saline with Tween-80",99 % of control
same,T/C,"dose: 12.5 mg/kg/injection, schedule: Q01DX009 (ip), vehicle: saline with Tween-80",99 % of control
same,T/C,[10],87 % of control
same,T/C,[11],101 % of control
COC1OC2COc3ccccc3OC2C(NC(N)=S)C1OC (configuration not stated),T/C,"dose: 60.0 mg/kg/injection, schedule: Q01DX005 (ip), vehicle: Klucel (hydroxypropylcellulose) (HPC)",105 % of control
same,T/C,"dose: 120.0 mg/kg/injection, schedule: Q01DX005 (ip), vehicle: Klucel (hydroxypropylcellulose) (HPC)",105 % of control
same,T/C,"dose: 240.0 mg/kg/injection, schedule: Q01DX005 (ip), vehicle: Klucel (hydroxypropylcellulose) (HPC)",105 % of control
Cc1cc2c(C(C)C)c(O)c(O)c(C=Nc3ccc(C(=O)NCC(=O)O)cc3)c2c(O)c1-c1c(C)cc2c(C(C)C)c(O)c(O)c(C=Nc3ccc(C(=O)NCC(=O)O)cc3)c2c1O,T/C,[4],94 % of control
same,T/C,[5],100 % of control
O=c1cc2c(n[nH]1)-c1ccccc1C2,T/C,[4],100 % of control
same,T/C,[5],109 % of control
same,T/C,[6],96 % of control
NC1CNC(=O)NC1=O (configuration not stated),T/C,[13],101 % of control
same,T/C,[14],100 % of control
same,T/C,[15],101 % of control
O=c1[nH]c2cc([N+](=O)[O-])ccc2nc1/C=C(\O)c1ccc(F)cc1,T/C,"dose: 60.0 mg/kg/injection, schedule: Q01DX005 (ip), vehicle: Klucel + Tween-80",102 % of control
same,T/C,"dose: 120.0 mg/kg/injection, schedule: Q01DX005 (ip), vehicle: Klucel + Tween-80",86 % of control
CN(C)P1(=O)OCC(C)(C)CN1c1ccccc1 (configuration not stated),T/C,"dose: 100.0 mg/kg/injection, schedule: Q04DX002 (ip), vehicle: saline",96 % of control
same,T/C,"dose: 200.0 mg/kg/injection, schedule: Q04DX002 (ip), vehicle: saline",95 % of control
same,T/C,"dose: 400.0 mg/kg/injection, schedule: Q04DX002 (ip), vehicle: saline",100 % of control
NC(=Nc1ccc(Cl)cc1)N/N=C/c1ccc2c(c1)Cc1ccccc1-2,T/C,"dose: 25.0 mg/kg/injection, schedule: Q04DX002 (ip), vehicle: saline with Tween-80",106 % of control
same,T/C,"dose: 50.0 mg/kg/injection, schedule: Q04DX002 (ip), vehicle: saline with Tween-80",106 % of control
same,T/C,"dose: 100.0 mg/kg/injection, schedule: Q04DX002 (ip), vehicle: saline with Tween-80",107 % of control
c1ccc2c(c1)C1CCC2c2ccccc21,T/C,[12],118 % of control
same,T/C,[16],104 % of control
same,T/C,[17],118 % of control
C[N+](C)(C)[N-]C(=N)c1ccccc1,T/C,"dose: 25.0 mg/kg/injection, schedule: Q01DX001 (ip), vehicle: suspension in saline",102 % of control
same,T/C,"dose: 50.0 mg/kg/injection, schedule: Q01DX001 (ip), vehicle: suspension in saline",104 % of control
same,T/C,"dose: 100.0 mg/kg/injection, schedule: Q01DX001 (ip), vehicle: suspension in saline",99 % of control and 110 % of control
